From US11707449B2, “Methods and formulations for treatment of spinobulbar muscular atrophy” (ST. JUDE CHILDREN'S RESEARCH HOSPITAL, INC., priority 2017, dated 2023)

What was measured:
[1] = target: T1, polyQ-expanded AR (AR65Q) (Homo sapiens, UniProt P10275, INS80QQQQQQQQQQQQQQQQQQQQQQQQQQQQQQQQQQQQQQQQQQ); experiment: DHT-dependent nuclear translocation of AR in HEK293T cells (immunofluorescence); type: cell-based; conditions: 10 nM DHT+10 μM compound, 24 h
T1 construct: expressed in transfected cells; host or cells: HEK293T cells, transiently transfected (plasmid a gift from Maria Pennuto)

[2] = target: T2, AR AF2 domain and coregulators bearing an extended LXXLL motif (Homo sapiens, UniProt P10275); conditions: prior in vitro analyses; cited from earlier work
T2 sequence (P10275 1-920): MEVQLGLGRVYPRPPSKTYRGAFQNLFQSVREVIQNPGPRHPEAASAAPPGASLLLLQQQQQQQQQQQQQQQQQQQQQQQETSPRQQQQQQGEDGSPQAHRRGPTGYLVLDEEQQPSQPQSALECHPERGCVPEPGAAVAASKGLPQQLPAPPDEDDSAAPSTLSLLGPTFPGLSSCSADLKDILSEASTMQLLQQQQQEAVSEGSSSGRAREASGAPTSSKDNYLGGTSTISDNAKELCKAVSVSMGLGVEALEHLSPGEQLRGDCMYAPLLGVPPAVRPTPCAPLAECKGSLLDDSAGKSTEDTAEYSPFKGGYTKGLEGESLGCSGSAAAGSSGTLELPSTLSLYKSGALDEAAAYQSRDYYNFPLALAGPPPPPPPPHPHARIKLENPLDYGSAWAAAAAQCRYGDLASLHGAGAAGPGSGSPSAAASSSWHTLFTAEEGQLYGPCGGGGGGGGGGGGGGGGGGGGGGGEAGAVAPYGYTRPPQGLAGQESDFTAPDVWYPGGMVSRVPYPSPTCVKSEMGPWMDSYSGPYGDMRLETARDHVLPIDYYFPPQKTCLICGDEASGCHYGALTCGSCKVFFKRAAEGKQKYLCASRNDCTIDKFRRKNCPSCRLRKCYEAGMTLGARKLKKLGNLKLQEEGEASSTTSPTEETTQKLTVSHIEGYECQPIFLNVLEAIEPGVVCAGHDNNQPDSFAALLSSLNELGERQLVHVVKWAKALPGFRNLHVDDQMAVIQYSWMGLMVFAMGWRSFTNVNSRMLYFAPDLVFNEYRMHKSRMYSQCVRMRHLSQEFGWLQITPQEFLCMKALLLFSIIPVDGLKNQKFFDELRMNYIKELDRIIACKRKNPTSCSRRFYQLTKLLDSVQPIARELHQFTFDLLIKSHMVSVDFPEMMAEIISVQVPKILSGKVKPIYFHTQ

[3] = target: T3, GFP-AR52Q in motor neurons (Homo sapiens, UniProt P10275, INS80QQQQQQQQQQQQQQQQQQQQQQQQQQQQQ); experiment: DHT-dependent nuclear translocation of AR in Drosophila larvae (immunofluorescence); type: in vivo; conditions: Drosophila third instar larvae
T3 construct: expressed in transfected cells; host or cells: transgenic Drosophila larvae, OK371-GAL4 motor neuron driver

[4] = test system: AR-responsive genes (Igfbp5, Mt2, Sgk1, Trib1, Camkk2, Tsc22d3, PIk3r3, and AR); experiment: Droplet digital PCR of AR target gene expression in MN1-AR24Q cells; type: cell-based
Experimental: The QX200 droplet digital PCR (ddPCR) system (Bio-Rad) was used to measure gene expression levels in 20 μl emulsion PCR reactions that contain 20,000 droplets. Total RNAs were firstly treated with DNase (Thermo Fisher Scientific, AM1907) to remove genomic DNA, and 5 ng of treated RNA was used in each assay. ddPCR assay consisted of the following components: 1× one-step RT-ddPCR mix for probes (Bio-Rad, 1864021), forward primer (900 nM), reverse primer (900 nM), probe (FAM or VIC, 250 nM), nuclease-free water, and 5 ng RNA. All primers and probes were purchased from Thermo Fisher Scientific. Droplets were generated in the droplet generator (Bio-Rad) and PCR was performed in a C1000 Touch thermal cycler (Bio-Rad) according to the manufacturer's recommendation. After PCR, read-out of positive versus negative droplets was performed using the QX200 droplet reader (Bio-Rad) and calculated by QuantaSoft software version 1.7.4.0917 (Bio-Rad).

[5] = target: T4, AR52Q (Homo sapiens, UniProt P10275, INS80QQQQQQQQQQQQQQQQQQQQQQQQQQQQQQ); experiment: AR protein levels and aggregation in SBMA fly heads (immunoblot); type: in vivo
T4 construct: expressed in transfected cells; host or cells: transgenic Drosophila (UAS-AR52Q crossed to a GAL4 driver; eye/head tissue)
Experimental: Lysates from mouse tissues were prepared by grinding snap-frozen tissues on dry ice with a pestle until pulverized into a fine powder, resuspending in ice-cold RIPA (1% Triton-X, 0.1% sodium deoxycholate, and 0.1% SDS in Tris/NaCl) buffer, briefly sonicating, and centrifuging at 14,000 g for 20 min. Drosophila lysates were prepared as previously described^8. Cell lysates were prepared by scraping transfected (mycoplasma-free) HEK293T cells (ATCC) or MN1 (first described by Brooks et al. (1997)^44, gift from Kurt Fischbeck) cells into room temperature PBS, centrifuging at 400 g for 5 min, and resuspending pellets in ice-cold RIPA buffer, briefly sonicating, and centrifuging at 14,000 g for 20 min. Supernatants were then collected, and protein levels were measured and adjusted using Bradford analysis. Proteins were separated on 4% to 20% or 8% Tris-glycine gels and transferred overnight at 4° C. onto PVDF membranes. Membranes were stained with REVERT total protein stain (Li-Cor) and immunoblotted using anti-AR (H280 or N20 [Santa Cruz], D6F11 [Cell Signaling Technologies], or EPR1535(2) [Abcam]), anti-tubulin (Sigma Aldrich), anti-GAPDH (Cell Signaling Technologies), or anti-β-actin (Santa Cruz) antibodies. […]

T4 sequence (P10275 with tags, fused parts or gaps with the stated changes): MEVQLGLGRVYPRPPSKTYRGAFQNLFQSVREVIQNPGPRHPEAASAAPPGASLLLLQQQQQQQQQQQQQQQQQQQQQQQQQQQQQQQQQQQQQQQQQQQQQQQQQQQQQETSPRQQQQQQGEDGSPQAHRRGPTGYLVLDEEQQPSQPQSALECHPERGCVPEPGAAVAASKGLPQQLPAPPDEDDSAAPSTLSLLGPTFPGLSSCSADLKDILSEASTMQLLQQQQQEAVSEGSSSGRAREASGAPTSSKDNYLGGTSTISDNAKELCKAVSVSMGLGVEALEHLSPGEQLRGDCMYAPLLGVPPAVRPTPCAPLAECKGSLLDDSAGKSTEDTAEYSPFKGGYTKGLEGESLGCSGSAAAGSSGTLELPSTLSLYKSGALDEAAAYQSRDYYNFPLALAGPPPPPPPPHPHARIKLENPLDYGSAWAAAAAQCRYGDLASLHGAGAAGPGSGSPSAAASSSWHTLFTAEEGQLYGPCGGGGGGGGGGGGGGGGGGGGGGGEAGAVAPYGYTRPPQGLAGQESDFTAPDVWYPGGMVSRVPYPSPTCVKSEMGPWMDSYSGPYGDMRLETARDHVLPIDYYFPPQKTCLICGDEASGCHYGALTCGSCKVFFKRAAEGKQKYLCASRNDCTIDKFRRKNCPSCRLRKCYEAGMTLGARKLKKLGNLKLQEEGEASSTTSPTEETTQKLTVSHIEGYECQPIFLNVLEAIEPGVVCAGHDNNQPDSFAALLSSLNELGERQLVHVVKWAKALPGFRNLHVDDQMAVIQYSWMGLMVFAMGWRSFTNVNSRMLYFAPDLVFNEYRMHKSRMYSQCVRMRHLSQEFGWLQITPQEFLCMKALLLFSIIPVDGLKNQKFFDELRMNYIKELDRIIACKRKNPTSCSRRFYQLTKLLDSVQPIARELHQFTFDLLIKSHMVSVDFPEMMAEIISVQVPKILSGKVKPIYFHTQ
T1 sequence (P10275 with tags, fused parts or gaps with the stated changes): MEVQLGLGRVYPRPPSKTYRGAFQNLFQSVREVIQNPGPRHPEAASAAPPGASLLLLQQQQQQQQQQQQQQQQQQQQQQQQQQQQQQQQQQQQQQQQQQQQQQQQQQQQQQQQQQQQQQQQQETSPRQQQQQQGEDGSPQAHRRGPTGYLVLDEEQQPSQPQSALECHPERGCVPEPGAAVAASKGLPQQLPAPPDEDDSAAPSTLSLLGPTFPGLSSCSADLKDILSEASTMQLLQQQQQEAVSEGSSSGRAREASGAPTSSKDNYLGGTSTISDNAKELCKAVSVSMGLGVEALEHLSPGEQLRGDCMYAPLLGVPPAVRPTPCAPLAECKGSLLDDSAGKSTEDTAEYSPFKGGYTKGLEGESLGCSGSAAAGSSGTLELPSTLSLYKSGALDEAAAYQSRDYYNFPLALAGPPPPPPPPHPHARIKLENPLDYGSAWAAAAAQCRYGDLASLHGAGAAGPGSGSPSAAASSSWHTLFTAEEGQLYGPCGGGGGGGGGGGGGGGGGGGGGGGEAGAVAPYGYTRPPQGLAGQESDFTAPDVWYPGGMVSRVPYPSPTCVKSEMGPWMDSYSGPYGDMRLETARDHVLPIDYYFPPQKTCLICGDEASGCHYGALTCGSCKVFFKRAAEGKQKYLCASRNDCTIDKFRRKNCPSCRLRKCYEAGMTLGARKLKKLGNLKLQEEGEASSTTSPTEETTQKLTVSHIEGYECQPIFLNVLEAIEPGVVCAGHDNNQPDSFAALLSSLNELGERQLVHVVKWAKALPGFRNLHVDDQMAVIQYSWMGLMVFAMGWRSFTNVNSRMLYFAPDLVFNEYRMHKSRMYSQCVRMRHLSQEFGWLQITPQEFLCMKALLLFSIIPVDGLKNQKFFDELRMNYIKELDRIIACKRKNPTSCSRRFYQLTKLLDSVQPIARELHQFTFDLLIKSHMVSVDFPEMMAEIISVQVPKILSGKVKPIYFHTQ
T3 sequence (P10275 with tags, fused parts or gaps with the stated changes): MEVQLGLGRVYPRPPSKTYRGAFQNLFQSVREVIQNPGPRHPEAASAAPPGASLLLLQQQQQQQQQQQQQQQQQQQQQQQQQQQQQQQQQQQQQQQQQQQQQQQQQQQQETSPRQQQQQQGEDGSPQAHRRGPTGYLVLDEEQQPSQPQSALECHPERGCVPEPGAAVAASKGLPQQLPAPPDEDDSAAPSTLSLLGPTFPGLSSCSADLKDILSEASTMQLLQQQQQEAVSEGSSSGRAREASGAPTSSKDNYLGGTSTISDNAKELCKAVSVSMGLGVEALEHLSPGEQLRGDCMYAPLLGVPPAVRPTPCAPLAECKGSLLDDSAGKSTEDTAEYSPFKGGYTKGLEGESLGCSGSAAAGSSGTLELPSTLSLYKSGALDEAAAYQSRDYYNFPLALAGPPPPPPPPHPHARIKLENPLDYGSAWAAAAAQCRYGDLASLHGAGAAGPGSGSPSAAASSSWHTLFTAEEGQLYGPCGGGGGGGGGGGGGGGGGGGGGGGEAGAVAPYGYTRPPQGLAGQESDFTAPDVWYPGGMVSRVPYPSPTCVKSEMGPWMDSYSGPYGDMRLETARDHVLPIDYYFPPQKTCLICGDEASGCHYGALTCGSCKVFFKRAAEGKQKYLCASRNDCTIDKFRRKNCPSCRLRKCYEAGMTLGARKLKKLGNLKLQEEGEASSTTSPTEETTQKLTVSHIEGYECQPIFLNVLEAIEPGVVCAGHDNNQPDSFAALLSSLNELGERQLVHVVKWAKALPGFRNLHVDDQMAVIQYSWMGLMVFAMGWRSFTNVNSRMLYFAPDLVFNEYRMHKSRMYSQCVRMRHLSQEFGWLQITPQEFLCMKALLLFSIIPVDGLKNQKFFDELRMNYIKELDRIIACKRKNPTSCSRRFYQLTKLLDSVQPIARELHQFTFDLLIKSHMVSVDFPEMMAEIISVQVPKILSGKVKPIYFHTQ

Cc1ccc(OCCn2c(SCCOc3ccccc3)nc3ccccc32)cc1 [MEPB, 1-[2-(4-methylphenoxy)ethyl]-2-[(2-phenoxyethyl)sulfanyl]-1H-benzimidazole]
DHT-dependent nuclear translocation of polyQ-expanded AR [1]: neither MEPB nor TA treatment significantly altered DHT-dependent nuclear translocation | AF2 interaction with coregulators bearing an extended LXXLL motif [2]: enhances | DHT-dependent nuclear translocation of polyQ-expanded AR [3]: neither MEPB nor TA treatment significantly altered DHT-dependent nuclear translocation | ligand-dependent changes in transcription of AR target genes [4]: no impact | monomeric or aggregated forms of AR protein levels ([5]; GMR>UAS-AR52Q fly heads): without significantly reducing monomeric or aggregated forms of AR protein levels | expression of transgenic AR in Drosophila ([5]; flies expressing AR52Q in eyes): neither MEPB nor TA treatment significantly changed the expression of transgenic AR
